“Also recorded” adds a separate entry of the source.
Tests used:
Format in all cases: in vivo, human
[1] = test system: healthy elderly subjects with a mild memory complaint; assay: CANTAB Paired Associate Learning (PAL) test, randomized double-blind placebo-controlled 24 week study
Protocol: (§1) The effects of DHA (about 900 mg/day) versus placebo was tested to determine whether cognitive measures of memory, attention, and executive function were improved, utilizing the Cambridge Neuropsychological Test Automated Battery (CANTAB) cognitive battery, in healthy elderly subjects with a mild memory complaint. One objective of the study was to determine the effect of DHA administration versus placebo on improving cognitive functions (i.e., working memory, memory retention, attention, processing speed, and executive function) in healthy elderly with a subjective memory complaint. Another objective of the study included determining the effects of DHA on visual acuity, levels of plasma phospholipids, and evaluating the safety and tolerability of the DHA dose administered.
The study was a randomized, double-blind, placebo-controlled, parallel, multi-center design study to evaluate the effects of an oral dose of DHA on cognitive functions in healthy elderly with a subjective memory complaint. The study consisted of a screening/baseline period, and a 24 week treatment period.
(§2) The DHA group was provided 800 mg soft-gelatin capsules, each containing about 300 mg DHA as a triglyceride from algal oil (DHASCO®-S oil, 40% DHA). In addition to 40% DHA, DHASCO®-S oil was formulated to contain 40-60% saturated, mono- and polyunsaturated fatty acids, 400 ppm ascorbyl palmitate, 2000 ppm mixed tocopherols, 2000 ppm rosemary extract, 3% orange-flavoring, and 1% natural masking agent. Subjects were instructed to take three 800 mg capsules/day, i.e., about 900 mg DHA/day.
Pre-baseline testing with the CANTAB occurred to serve as a training session and to familiarize the subject with the computer system. Morris R, et al., Computer Aided Assessment of Dementia: Comparative Studies of Neuropsychological Deficits in Alzheimer Type Dementia and Parkinson's Disease (1987). Seven (+/−2) days following this pre-baseline testing, baseline measurements were taken, including baseline laboratory measures, vital signs, and the CANTAB cognitive battery. At the baseline session, subjects were stratified based on age (55-69; ≧70) and randomly assigned to receive about 900 mg DHA, or placebo. Capsules, either DHA or placebo, as randomly assigned, was given to each subject at the end of the baseline visit. Subjects were instructed to take 3 capsules everyday for the ensuing 24 weeks and were supplied initially with 3 months' worth of capsules. At the end of 4 weeks, subjects returned to the site for compliance and safety assessments. Subjects returned to the site at 12 weeks for safety and efficacy assessments and were re-supplied with the final 3 months' worth of capsules. Subjects returned to the site at 24 weeks for the “end of study” efficacy and safety assessments. Compliance was assessed by food frequency questionnaires, returned capsule counts, and by plasma DHA levels (taken at 24 weeks). The CANTAB cognitive battery consists of tests of memory, learning, attention, problem-solving, and executive function (i.e., planning and organizational skills). See e.g., Fowler et al., Applied Neuropsychology 2:72-78 (1995); Robbins et al., Dementia 5:266-281 (1994); and De Luca et al., J Clinical and Experimental Neuropsychology 25:242-254 (2003).
A primary efficacy endpoint of the CANTAB test score on the Paired Associate Learning (PAL) test at 24 weeks of treatment was used as the primary efficacy outcome. The primary analysis was adjusted for baseline scores, education, site, and the stratification factor of age. Secondary analyses were based on the model above with the addition of the factor, concomitant statin medication use. The PAL subtest of the CANTAB is a test of visuospatial cued recall memory that detects changes in episodic memory. See e.g., de Jager et al., Psychological Medicine 32:483-491 (2002). […]

[2] = Plasma phospholipid fatty acid levels
Protocol: as §2
Blood samples of the subjects were collected at baseline and at the week 24 or “end of study” visit to determine phospholipid levels. Samples were collected into 10 ml vacutainer EDTA tubes, centrifuged at 3000 rpm and plasma was stored at −80° C. until analyzed. Plasma phospholipid fatty acids were analyzed as described previously. See, e.g., Arterburn, L. M., et al., Lipids 42:1011-1024 (2007). The fatty acid profiles were expressed as a percent of the total […] of fatty acid (weight percent).

[3] = test system: healthy elderly subjects with a mild memory complaint; assay: ADL (ADCS-ADL PI) and self-assessment of memory (Frequency of Forgetting-10); conditions: 6 month study
From the text: (§3) The secondary efficacy endpoints included: • CANTAB tests of executive function and planning: Spatial Working Memory […] and Stockings of Cambridge (SOC) • CANTAB Verbal Recognition Memory test (VRM) • CANTAB Pattern Recognition test (PRM) • Visual acuity (measured by Snellen Eye chart; corrected vision) • Memory Functioning Questionnaire: Frequency of Forgetting-10 (Self-rating scale) • Activities of Daily Living (ADCS-ADL PI) scale (Self-rating) • Clinical measures of cognitive function and computerized assessments were administered by (CANTAB) certified examiners at each site blinded to the subject's treatment. • Description of CANTAB Battery of tests
(§4) Other secondary measures included self-assessment tests of memory (Frequency of Forgetting-10 scale) (Zelinski, E. M. et al., Aging and Mental Health […]), Alzheimer's Disease Cooperative Study-Activities of Daily Living Prevention Instrument (ADCS-ADL PI scale) (Galasko, D., Alzheimer Dis. Assoc. Disord. 20:S152-69 (200)), Mini-Mental State Examination (MMSE) (Folstein et al., Pyschiatr. Res. 12:189-198 (1975) and the Geriatric Depression Scale (Yesavage, J., et al., J Psychiatr. Res. […]).

[4] = test system: healthy elderly subjects with a mild memory complaint; assay: Geriatric Depression Scale; conditions: 6 month study, not different between groups
From the text: (§5) During the Screening Period, subjects were selected on the basis of specific inclusion and exclusion criteria, including a screening Logical Memory sub-test of the Wechsler Memory Scale (WMS III). See e.g., Wechsler, D., Administration and Scoring Manual, 3rd ed. San Antonio, Tex.: Harcourt Brace & Company, 1997. In addition to the Logical Memory sub-test, the Mini-Mental State Examination (MMSE), Geriatric Depression scale, and a test of visual acuity and a DHA Food Frequency Questionnaire were administered to all subjects at screening. See e.g., Folstein et al., Pyschiatr. Res. 12:189-198 (1975); Yesavage J., et al., J Psychiatr. Res. […] (1982). Eligible subjects who meet the screening criteria were given a pre-baseline training session with the computerized cognitive battery, CANTAB.
as §4

[5] = Vital signs (heart rate, blood pressure, body weight); conditions: about 900 mg/d, 24 weeks
Protocol: as §1, §2
(§6) Pre-baseline testing with the CANTAB occurred to serve as a training session and to familiarize the subject with the computer system. Morris R, et al., Computer Aided Assessment of Dementia: Comparative Studies of Neuropsychological Deficits in Alzheimer Type Dementia and Parkinson's Disease (1987). Seven (+/−2) days following this pre-baseline testing, baseline measurements were taken, including baseline laboratory measures, vital signs, and the CANTAB cognitive battery. At the baseline session, subjects were stratified based on age (55-69; ≧70) and randomly assigned to receive about 900 mg DHA, or placebo. […] Compliance was assessed by food frequency questionnaires, returned capsule counts, and by plasma DHA levels (taken at 24 weeks). […]

[6] = test system: healthy elderly subjects with a mild memory complaint; assay: CANTAB Stockings of Cambridge (SOC) test; conditions: about 900 mg/d, 24 weeks
Protocol: as §1, with “Another objective of the study included determining the effects of DHA on visual acuity, levels of plasma phospholipids, and evaluating the safety and tolerability of the DHA dose administered.” left out
as §3, with “of tests […]” for “of tests”

[7] = test system: healthy elderly subjects with a mild memory complaint; assay: CANTAB Verbal Recognition Memory (VRM) test
Protocol: as §1, §2, §3
Additional tests are included in CANTABeclipse and are available in the CANTABelect batteries. […]

[8] = test system: healthy elderly subjects with a mild memory complaint; assay: CANTAB Spatial Working Memory (SWM) test; conditions: about 900 mg/d, 24 weeks
Protocol: as §1, with “Another objective of the study included determining the effects of DHA on visual acuity, levels of plasma phospholipids, and evaluating the safety and tolerability of the DHA dose administered.” left out
as §3, with “of tests […]” for “of tests”

[9] = test system: healthy elderly subjects with a mild memory complaint; assay: Safety and tolerability of the DHA dose
Protocol: as §1
as §6, with “battery.” for “battery. At the baseline session, subjects were stratified based on age (55-69; ≧70) and randomly assigned to receive about 900 mg DHA, or placebo.”

[10] = test system: healthy elderly subjects with a mild memory complaint; assay: Mini-Mental State Examination (MMSE); conditions: 6 month study, not different between groups
From the text: as §5, §4

[11] = test system: healthy elderly subjects with a mild memory complaint; assay: CANTAB Pattern Recognition Memory (PRM) test; conditions: about 900 mg/d, 24 weeks
Protocol: as §1, with “Another objective of the study included determining the effects of DHA on visual acuity, levels of plasma phospholipids, and evaluating the safety and tolerability of the DHA dose administered.” left out
as §3, with “of tests […]” for “of tests”

CC/C=C\C/C=C\C/C=C\C/C=C\C/C=C\C/C=C\CCC(=O)O [DHA, (all-Z)-4,7,10,13,16,19-docosahexaenoic acid]
errors made on the PAL 6 pattern stage test, diff. score versus placebo, change from baseline ([1]; about 900 mg/d DHA, six months, ITT analysis, p<0.03): −1.63±0.76 | PAL primary endpoint, diff. score versus placebo, compliers analysis ([1]; about 900 mg/d, week 24, 95% CI −3.1, 0.4, p<0.13, not significant): −1.3±0.89 | improvement in PAL test performance compared to age-associated normative data ([1]; about 900 mg/day, 6 months, placebo 3.6 year): 7 year | reduction in CANTAB PAL 6 pattern errors compared to the decrease with placebo ([1]; about 900 mg/day, six months): ~2 fold | mean PAL errors after 6 months of DHA supplementation ([1]; baseline 13.4±11.5): 8.8±9.9 | normative age corresponding to mean PAL errors after 6 months ([1]; baseline 72.6 years): 65.6 years of age | plasma phospholipid DHA change, diff. score versus placebo ([2]; 24 weeks, p<0.001): 3.15±0.16 | plasma phospholipid DPAn-6, mean change ([2]; 24 weeks, placebo −0.004, p<0.001): 0.37 weight % | plasma phospholipid EPA, mean change ([2]; 24 weeks, placebo −0.06, p<0.001): 0.16 weight % | plasma phospholipid arachidonic acid (ARA), mean change from baseline ([2]; 24 weeks, placebo −0.12, p<0.001): −1.37 weight % | plasma phospholipid ARA levels, decrease ([2]; about 900 mg/day, six months): 1.4 weight % | plasma phospholipid DHA, increase from baseline ([2]; week 24, about 900 mg/day, placebo −0.08): 3.2 weight % | plasma phospholipid DHA level after treatment ([2]; week 24, baseline 3.2 weight %, p<0.001): 6.4 weight % | ADL assessment [3]: unaffected by DHA supplementation | self-perceptive memory assessment [3]: unaffected by DHA supplementation | Geriatric Depression scale [4]: unchanged | blood pressure, DHA versus placebo [5]: remained unchanged | body weight, DHA versus placebo [5]: remained unchanged | heart rate, change from baseline ([5]; placebo −1 BPM, p<0.03): −3.2 BPM | changes in executive function (SOC) [6]: not found | VRM delayed recognition, change from baseline correct responses, diff. versus placebo ([7]; about 900 mg/d, p<0.02): 0.4±0.18 | VRM immediate recognition, change from baseline correct responses, diff. versus placebo ([7]; about 900 mg/d, p<0.02): 0.4±0.17 | CANTAB Verbal recognition memory, effect of DHA supplementation ([7]; about 900 mg/day, 6 months): modestly improved | Spatial Working Memory (SWM) test responses, DHA versus placebo [8]: not significantly different; also recorded: not found | treatment-related SAEs ([9]; about 900 mg/d, 24 weeks): no treatment-related SAEs were reported | tolerability ([9]; about 900 mg/day algal DHA, six months): well tolerated | MMSE, global cognitive function [10]: unchanged | CANTAB Pattern Recognition test responses, DHA versus placebo [11]: not significantly different

— patent publication US20100203123A1, “METHODS FOR IMPROVING COGNITIVE FUNCTION AND DECREASING HEART RATE” (MARTEK BIOSCIENCES CORPORATION, priority 2009, published 2010)
